Results on twelve molecules are retold here after PMC8151276, “An Integrated Approach toward NanoBRET Tracers for Analysis of GPCR Ligand Engagement” (Molecules, 2021).

For experiment [1], the target named is T1, CHRM1 (Homo sapiens, UniProt P11229).
T1 construct: purchased Promega (in-house HiBiT-GPCR construct library, NanoBRET)
T1 sequence (P11229 1-460): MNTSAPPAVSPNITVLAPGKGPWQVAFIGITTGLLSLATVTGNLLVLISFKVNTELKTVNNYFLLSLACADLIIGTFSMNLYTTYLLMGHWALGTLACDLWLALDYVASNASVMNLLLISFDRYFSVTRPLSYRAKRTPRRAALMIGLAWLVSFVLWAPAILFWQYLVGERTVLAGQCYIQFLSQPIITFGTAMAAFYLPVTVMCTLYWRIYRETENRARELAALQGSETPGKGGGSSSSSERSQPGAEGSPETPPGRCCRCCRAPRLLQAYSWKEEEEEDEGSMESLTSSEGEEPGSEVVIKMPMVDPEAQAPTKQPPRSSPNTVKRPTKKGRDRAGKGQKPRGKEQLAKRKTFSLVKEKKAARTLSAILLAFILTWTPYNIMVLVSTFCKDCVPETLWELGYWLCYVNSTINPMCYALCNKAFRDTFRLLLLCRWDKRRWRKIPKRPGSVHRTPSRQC
Put plainly: NanoBRET screen HiBiT-CHRM1 in HEK293. The format is binding.

Experiment [2] concerns 184 HiBiT-GPCRs from 51 families. Put plainly: NanoBRET screen, binding profile across the HiBiT-GPCR library. More on the design: species or system human. The conditions noted are these: screen at 1 μM and 0.1 μM tracer. Here is the method: Each tracer candidate was screened across the entire library of HiBiT-GPCR constructs using NanoBRET as the detection modality. As depicted in Figure 4A, the specificity of interactions was evaluated through decrease in BRET due to competitive displacement of a bound tracer by excess parental compound. Each tracer was analyzed for binding to each HiBiT-GPCR fusion in the absence and in the presence of competing parental compound. Briefly, HEK293 cells were transfected with HiBiT-GPCR constructs diluted into promoterless DNA to reduce expression and maximize translocation to the cell surface. Each tracer candidate was then screened at concentrations of 1 μM and 0.1 μM across cells expressing these fusions. Cells were treated for 1.5 h with tracer either alone or in the presence of 20 μM competing parental compound (i.e., control). BRET was measured upon addition of purified LgBiT and subsequent complementation with HiBiT genetically fused to a GPCR. The specificity of interactions was assessed through a decrease in BRET signal due to competitive displacement of the bound tracer. To further gauge the robustness of these interactions, the fold response over the control (i.e., BRETtracer/BRETcontrol) was calculated. We chose a 1.5-fold response, which translates to ≥7-fold signal over noise as the minimal threshold required to score an interaction as positive. […]. […]

“And” between values parts separate entries of the source, which are not always exact repeats. Equal values may be shown once. Read-outs that look alike come from different tables or passages of the source.

Regarding `O=C(CCOCCOCCOCCOCCNC(=O)CCc1ccc2n1[B-](F)(F)[N+]1=C(c3ccc[nH]3)C=CC1=C2)NCCCN1CCN(C2=Nc3cc(Cl)ccc3Nc3ccccc32)CC1` [Clozapine-a-2-NB590], the “NanoBRET Fold Response” value in experiment [1] (CHRM1, 0.1μM tracer) worked out at 1.09; in experiment [1] (CHRM1, 1μM tracer), 0.98.
As for `CCOC(=O)c1cc(C#N)c(N2CCC(C(=O)NS(=O)(=O)Cc3ccccc3/C=C/C(=O)NCCNC(=O)CCc3ccc4n3[B-](F)(F)[N+]3=C(c5ccc[nH]5)C=CC3=C4)CC2)nc1C` [AZD1283-1-NB590], the “NanoBRET Fold Response” value was determined as 1.01 in experiment [1] (CHRM1, 0.1μM) and 1.04 in experiment [1] (CHRM1, 1μM).
As for `COc1ccc2[nH]c(-c3ccc(CNC(=O)CCOCCOCCOCCOCCNC(=O)CCc4ccc5n4[B-](F)(F)[N+]4=C(c6ccc[nH]6)C=CC4=C5)cc3)c(CCNC(C)=O)c2n1` [AzomelatoninICO9-2-NB590], the “NanoBRET Fold Response” value is 1.20 in experiment [1] (0.1μM tracer) and 0.97 in experiment [1] (1μM tracer).
Regarding `CCCn1c(=O)c2[nH]c(-c3ccc(OCC(=O)NCCNC(=O)CCOCCNC(=O)c4ccc(CNC(=O)CCc5ccc6n5[B-](F)(F)[N+]5=C(c7ccc[nH]7)C=CC5=C6)cc4)cc3)nc2n(CCC)c1=O` [XAC-3-NB590], the “NanoBRET Fold Response” value in experiment [1] (CHRM1, tracer 0.1μM) was determined as 1.11; in experiment [1] (CHRM1, tracer 1μM), 0.99.
For `COc1ccccc1N1CCN(CCCCN2C(=O)c3ccc(CNC(=O)CCOCCNC(=O)c4ccc(CNC(=O)CCc5ccc6n5[B-](F)(F)[N+]5=C(c7ccc[nH]7)C=CC5=C6)cc4)cc3C2=O)CC1` [NAN-190-3-NB590], the “NanoBRET Fold Response” value came out at 0.89 in experiment [1] (CHRM1, tracer 0.1μM) and 0.92 in experiment [1] (CHRM1, tracer 1μM).
As to `CN(CCC=C1c2ccccc2CCc2ccccc21)C(=O)CCOCCOCCOCCOCCNC(=O)CCc1ccc2n1[B-](F)(F)[N+]1=C(c3ccc[nH]3)C=CC1=C2` [Amitriptyline-e-2-NB590], in experiment [2], the “Number of GPCRs with specific interactions (≥[…] response)” value is on record as “no specific interactions”.
With `COc1ccc2c(n1)c(CCNC(C)=O)cn2CCNC(=O)CCc1ccc2n1[B-](F)(F)[N+]1=C(c3ccc[nH]3)C=CC1=C2` [Azamelatonin-1-NB590], the results for the “NanoBRET Fold Response” value in experiment [1] (0.1μM tracer) and in experiment [1] (1μM tracer) were 1.17 and 0.93, respectively.
With `O=C(CCOCCOCCOCCOCCNC(=O)CCc1ccc2n1[B-](F)(F)[N+]1=C(c3ccc[nH]3)C=CC1=C2)NCCCN1CCN(C2=Nc3ccccc3Oc3ccc(Cl)cc32)CC1` [Loxapine-a-2-NB590], in experiment [1], the “NanoBRET Fold Response” value was 0.90 and 1.14.
Regarding `COc1ccccc1N1CCN(CCCCN2C(=O)c3ccc(CNC(=O)CCOCCOCCOCCOCCNC(=O)CCc4ccc5n4[B-](F)(F)[N+]4=C(c6ccc[nH]6)C=CC4=C5)cc3C2=O)CC1` [NAN-190-2-NB590], the “NanoBRET Fold Response” value in experiment [1] stood at 1.02; in experiment [1] (CHRM1, tracer 1μM) it was 1.16.
As to `CC(C)N(CC[C@H](c1ccccc1)c1cc(CCNC(=O)c2ccc(CNC(=O)CCc3ccc4n3[B-](F)(F)[N+]3=C(c5ccc[nH]5)C=CC3=C4)cc2)ccc1O)C(C)C` [Tolterodine-BZ-NB590], the “NanoBRET Fold Response” value in experiment [1] is 2.14 and 2.47.
Same read-out and setting: as for `CC(C)N(CC[C@H](c1ccccc1)c1cc(CCNC(=O)CCOCCOCCOCCOCCNC(=O)CCc2ccc3n2[B-](F)(F)[N+]2=C(c4ccc[nH]4)C=CC2=C3)ccc1O)C(C)C` [Tolterodine-2-NB590], the figure is 1.59 and 2.16.
As to `N#CN=C(NCCCOc1cccc(CN2CCCCC2)c1)NCCNC(=O)CCOCCOCCOCCOCCNC(=O)CCc1ccc2n1[B-](F)(F)[N+]1=C(c3ccc[nH]3)C=CC1=C2` [Aminopotentidine-2-NB590], the “NanoBRET Fold Response” value in experiment [1] (CHRM1, tracer 0.1μM) came to 0.98; in experiment [1] (CHRM1, tracer 1μM), 1.35.
